Here are results for twelve compounds from article PMC8836147, “Design, Synthesis and Antifungal/Nematicidal Activity of Novel 1,2,4-Oxadiazole Derivatives Containing Amide Fragments” (International Journal of Molecular Sciences, 2022).

The structures appear in SMILES notation.

One data set relates to B. xylophilus. Description: microbe, parasite or virus in culture. Particulars: Bursaphelenchus xylophilus, 48 h, read-out: Corrected Mortality Rate ± SD (%) B. xylophilus. An excerpt:
(§1) M. incognita (parasitic on tomato plants), A. besseyi (potato dextrose agar–Botrytis cinerea breeding), B. xylophilus (potato dextrose agar–Botrytis cinerea breeding), and C. elegans (nematode growth medium–inactivated Escherichia coli OP50 cultivation) were provided by the Fine Chemical Research and Development Center of Guizhou University (Guizhou, China). The methodology used for the nematocidal bioassays of these target compounds was modified in the light of the conventional methods reported in the previously published literature. The nematicidal activity of the target compounds against four nematodes was determined using 48-well biochemical culture dishes. All of the compounds were dissolved with 100 μL DMF and were diluted with 1% Tween-80 to obtain 200 and 50 μg/mL concentrations for the bioassays. Fosthiazate and tioxazafen were used as positive controls at the same concentrations, and a negative control group was prepared without compounds using the same methodology. An amount of 10 µL of nematode suspension (about 50 nematodes) and 300 µL of the trial solution were added to corresponding hole, and each treatment was set to three repetitions. All of the 48-well plates were placed in a biochemical incubator at 27 °C for dark light culture. […] Corrected mortality (%) = [(mortality of treatment % − mortality of negative control %)/(1 − mortality of negative control %)] × 100%(3)

A further data set deals with M. incognita. Briefly: microbe, parasite or virus in culture. Particulars: Meloidogyne incognita, 48 h, read-out: Corrected Mortality Rate ± SD (%) M. incognita.
Text: as §1

A further data set deals with A. besseyi. Briefly: microbe, parasite or virus in culture. The following applies: Aphelenchoides besseyi, 48 h, read-out: Corrected Mortality Rate ± SD (%) A. besseyi.
Text: as §1

The next data set concerns C. elegans. Description: microbe, parasite or virus in culture. Particulars: 48 h; for mortality at 50 µg/mL / mortality at 200 µg/mL: Caenorhabditis elegans, read-out: Corrected Mortality Rate ± SD (%) C. elegans.
Text: as §1

The test system of another data set is S. sclerotiorum. Briefly: In vitro mycelium growth inhibition test. In kind it is cell-based. Particulars: Sclerotinia sclerotiorum; 50 μg/mL; mycelial growth; mean ± SD of three replicates; read-out: Inhibition Rate (%) S. sclerotiorum. Here is the method: (§2) B. cinerea and S. scleotiorum were kindly provided by the Department of Pesticides, College of Plant Protection, Nanjing Agricultural University (Nanjing, China). All compounds were evaluated for mycelium growth inhibition tests against the two plant pathogenic fungi mentioned in previous reports. These two fungi were inoculated on potato dextrose agar (PDA) plates and were grown in biochemical incubators at 25 ± 1 °C for 2–4 days. The new mycelium was used to determine the antifungal activity. The target compounds were dissolved in 100 µL DMF, and they were then added into the PDA media to make the concentration 50 µg/mL. Mycelia dishes of about 5 mm in diameter were cut from the culture medium. Mycelium were picked up with a sterile inoculation needle, and the sample was inoculated in the middle of a PDA plate in a sterile environment. Afterwards, a preliminary screening of fungal activity was performed. […] Each test was carried out three times. The radial growth of the fungal colonies was gauged and recorded when the diameters of the blank control mycelia reached 5.0–5.5 cm. […] The final data were analyzed using SPSS v.25.0 (IBM, New York, NY, USA). The following formula was used to calculate the fungi inhibition rate. Inhibition rate (%) = [(Mycelium diameter of negative control − Mycelium diameter of treatment)/(Mycelium diameter of negative control − 0.5)] × 100%(1)

A further data set deals with B. cinerea. Description: In vitro mycelium growth inhibition test. The class given is cell-based. Particulars: Botrytis cinerea; 50 μg/mL; mycelial growth; mean ± SD of three replicates; read-out: Inhibition Rate (%) B. cinerea. The protocol: as §2

One may read the mortality as the share of the test organisms that died. Broadly, the inhibition is the relative decrease from the control value, in per cent. Turning to `O=C(NCCc1ncc(C(F)(F)F)cc1Cl)c1nc(-c2ccccc2)no1` [Compound F2, N-(2-(3-chloro-5-(trifluoromethyl)pyridin-2-yl)ethyl)-3-phenyl-1,2,4-oxadiazole-5-carboxamide], the mortality at 50 µg/mL with B. xylophilus stood at 0%; with M. incognita, 7.4 ± 3.2%; in the data set on A. besseyi, 0%; with C. elegans it was 10.3 ± 1.4%. Besides, the mortality at 200 µg/mL in the data set on B. xylophilus was 5.5 ± 1.6%; in the data set with M. incognita it was 42.6 ± 3.6%; in the data set with A. besseyi, 15.1 ± 1.6%; in the data set on C. elegans, 46.7 ± 2.6%. Besides, the results for the inhibition at 50 µg/mL in the data set on S. sclerotiorum and in the data set on B. cinerea were 48.6 ± 1.6% and 23.6 ± 0.6%, respectively.
As for `O=C(Nc1ccc(Cl)cc1Cl)c1nc(-c2ccccc2)no1` [Compound F4, N-(2,4-dichlorophenyl)-3-phenyl-1,2,4-oxadiazole-5-carboxamide], the mortality at 50 µg/mL in the data set with B. xylophilus worked out at 0%; in the data set with M. incognita, 5.9 ± 1.3%; in the data set on A. besseyi it was 0%; in the data set on C. elegans it was 71.4 ± 2.2%. For the same compound, the mortality at 200 µg/mL in the data set with B. xylophilus came out at 25.3 ± 1.7%; with M. incognita, 23.2 ± 1.4%; in the data set on A. besseyi, 11.7 ± 1.4%; in the data set on C. elegans, 98.4 ± 2.3%. Besides, the figures for the inhibition at 50 µg/mL in the data set on S. sclerotiorum and in the data set on B. cinerea were 31.2 ± 0.7% and 20.9 ± 0.1%, respectively.
As to `Cc1ccc(-c2noc(C(=O)NCCc3ccccn3)n2)cc1` [Compound F5, N -(2-(pyridin-2-yl)ethyl)-3-(p-tolyl)-1,2,4-oxadiazole-5-carboxamide], the mortality at 50 µg/mL in the data set with B. xylophilus was 0%; in the data set with M. incognita it was 3.5 ± 1.3%; with A. besseyi it was 0%; in the data set with C. elegans, 67.9 ± 2.3%. The mortality at 200 µg/mL in the data set on B. xylophilus is 8.1 ± 2.2%; with M. incognita, 35 ± 2.2%; with A. besseyi, 22.5 ± 3.2%; with C. elegans it was 94.6 ± 1.7%. Moreover, the inhibition at 50 µg/mL in the data set on S. sclerotiorum came to 56.3 ± 1.2%; in the data set on B. cinerea it was 24.9 ± 1.6%.
For the compound `Cc1ccc(-c2noc(C(=O)NCCc3ncc(C(F)(F)F)cc3Cl)n2)cc1` [Compound F6, N-(2-(3-chloro-5-(trifluoromethyl)pyridin-2-yl)ethyl)-3-(p-tolyl)-1,2,4-oxadiazole-5-carboxamide], the mortality at 50 µg/mL in the data set on B. xylophilus was determined as 0%; in the data set on M. incognita, 7.9 ± 2.2%; with A. besseyi it was 0%; with C. elegans, 100%. Further, the mortality at 200 µg/mL with B. xylophilus worked out at 11.6 ± 2.1%; in the data set with M. incognita, 44.6 ± 3.8%; with A. besseyi it was 29.4 ± 2.3%; in the data set on C. elegans it was 100%. Further, the “Corrected Mortality Rate ± SD (%) C. elegans” value with C. elegans (50 µg/mL) and with C. elegans (200 µg/mL) was 100.0% throughout. Moreover, the inhibition at 50 µg/mL with S. sclerotiorum amounted to 56 ± 1.4%; in the data set on B. cinerea it was 22.9 ± 1.1%.
`Cc1ccc(-c2noc(C(=O)NCc3ccc(F)cc3F)n2)cc1` [Compound F7, N-(2,4-difluorobenzyl)-3-(p-tolyl)-1,2,4-oxadiazole-5-carboxamide]: the mortality at 50 µg/mL with B. xylophilus was determined as 0%; in the data set with M. incognita it was 5.3 ± 1.1%; with A. besseyi it was 0%; with C. elegans, 68.2 ± 2.3%. The mortality at 200 µg/mL was determined as 28.1 ± 2.4% in the data set with B. xylophilus, 24.9 ± 3.2% with M. incognita, 12.2 ± 2.1% in the data set on A. besseyi and 91.9 ± 2.5% with C. elegans. Moreover, the inhibition at 50 µg/mL with S. sclerotiorum came to 56.4 ± 0.1%; in the data set with B. cinerea, 46.4 ± 0.8%.
As to `Cc1ccc(-c2noc(C(=O)Nc3ccc(Cl)cc3Cl)n2)cc1` [Compound F8, N-(2,4-dichlorophenyl)-3-(p-tolyl)-1,2,4-oxadiazole-5-carboxamide], the mortality at 50 µg/mL in the data set with B. xylophilus was determined as 0%; in the data set with M. incognita, 4.9 ± 2.1%; in the data set with A. besseyi, 0%; in the data set with C. elegans it was 47.6 ± 1.7%. The mortality at 200 µg/mL came to 18.1 ± 1.2% in the data set with B. xylophilus, 23.9 ± 3.3% in the data set with M. incognita, 6.1 ± 1.2% in the data set on A. besseyi and 77.6 ± 1.2% in the data set with C. elegans. For the same compound, the values for the inhibition at 50 µg/mL in the data set on S. sclerotiorum and with B. cinerea were 21.1 ± 1.7% and 22.7 ± 1.3%, respectively.
For the compound `O=C(NCCc1ncc(C(F)(F)F)cc1Cl)c1nc(-c2ccc(Cl)cc2)no1` [Compound F10, N-(2-(3-chloro-5-(trifluoromethyl)pyridin-2-yl)ethyl)-3-(4-chlorophenyl)-1,2,4-oxadiazole-5-carboxamide], the mortality at 50 µg/mL in the data set with B. xylophilus was determined as 0%; with M. incognita, 0%; in the data set on A. besseyi, 0%; with C. elegans, 69.3 ± 1.8%. For the same compound, the mortality at 200 µg/mL came out at 12.1 ± 1.7% in the data set with B. xylophilus, 15.8 ± 3.5% in the data set on M. incognita, 23.6 ± 2.2% in the data set on A. besseyi and 100% in the data set on C. elegans. In addition, the figures for the inhibition at 50 µg/mL in the data set on S. sclerotiorum and with B. cinerea were 48.6 ± 1.2% and 24.2 ± 1.7%, respectively.
With `O=C(NCc1ccc(F)cc1F)c1nc(-c2ccc(Cl)cc2)no1` [Compound F11, 3-(4-chlorophenyl)-N-(2,4-difluorobenzyl)-1,2,4-oxadiazole-5-carboxamide], the mortality at 50 µg/mL in the data set on B. xylophilus turned out to be 0%; in the data set on M. incognita it was 24.8 ± 2.2%; with A. besseyi, 0%; with C. elegans, 10.6 ± 1.3%. The mortality at 200 µg/mL with B. xylophilus is 23.2 ± 2.1%; in the data set with M. incognita it was 93.2 ± 2.1%; in the data set with A. besseyi, 19.8 ± 2.1%; in the data set on C. elegans, 73.6 ± 1.7%. For the same compound, the inhibition at 50 µg/mL in the data set on S. sclerotiorum was found to be 44.9 ± 0.9%; with B. cinerea, 44.2 ± 1.2%.
As to `O=C(Nc1ccc(Cl)cc1Cl)c1nc(-c2ccc(Cl)cc2)no1` [Compound F12, 3-(4-chlorophenyl)-N-(2,4-dichlorophenyl)-1,2,4-oxadiazole-5-carboxamide], the mortality at 50 µg/mL in the data set with B. xylophilus was found to be 0%; with M. incognita, 13.8 ± 2.3%; with A. besseyi, 0%; in the data set with C. elegans it was 8.6 ± 1.6%. Further, the mortality at 200 µg/mL in the data set with B. xylophilus stood at 20.8 ± 2.5%; in the data set on M. incognita, 54.8 ± 2.5%; in the data set on A. besseyi, 18.8 ± 1.1%; with C. elegans, 47.6 ± 1.2%. Also, the inhibition at 50 µg/mL with S. sclerotiorum amounted to 24.8 ± 1.4%; with B. cinerea it was 29.1 ± 1.4%.
Turning to `O=C(NCCc1ccccn1)c1nc(-c2cccs2)no1` [Compound F13, N -(2-(pyridin-2-yl)ethyl)-3-(thiophen-2-yl)-1,2,4-oxadiazole-5-carboxamide], the mortality at 50 µg/mL in the data set with B. xylophilus is 0%; in the data set on M. incognita, 0%; with A. besseyi it was 0%; in the data set with C. elegans, 70.4 ± 2.6%. For the same compound, the mortality at 200 µg/mL in the data set with B. xylophilus was 9.1 ± 1.5%; in the data set with M. incognita, 11.6 ± 1.1%; in the data set on A. besseyi it was 21.7 ± 2.4%; with C. elegans, 100%. For the same compound, the inhibition at 50 µg/mL in the data set with S. sclerotiorum turned out to be 41.1 ± 0.1%; with B. cinerea, 27.3 ± 0.4%.
Consider `CCOP(=O)(SC(C)CC)N1CCSC1=O` (stereo not shown) [Fosthiazate, fosthiazate, reference compound], for which the mortality at 50 µg/mL with B. xylophilus came to 38.8 ± 1.3%; with M. incognita it was 91.4 ± 2.5%; in the data set on A. besseyi it was 6.1 ± 3.1%; in the data set on C. elegans it was 100%. In addition, the mortality at 200 µg/mL is 72.4 ± 1.9% in the data set on B. xylophilus, 100% in the data set on M. incognita, 38.4 ± 1.9% with A. besseyi and 100% in the data set with C. elegans.
Regarding `c1ccc(-c2noc(-c3cccs3)n2)cc1` [Tioxazafen, tioxazafen, reference compound], the mortality at 50 µg/mL was determined as 0% with B. xylophilus, 12.6 ± 3.2% in the data set on M. incognita, 8.8 ± 2.4% in the data set on A. besseyi and 90.4 ± 0.7% in the data set on C. elegans. Besides, the mortality at 200 µg/mL in the data set on B. xylophilus came out at 13.5 ± 1.2%; in the data set with M. incognita, 23.9 ± 3.3%; in the data set on A. besseyi, 61.4 ± 1.7%; in the data set with C. elegans it was 100%.
